Measurements from patent publication US10858335B2 (Rigel Pharmaceuticals, Inc., priority 2014, dated 2020).

Test system: GDF8 signaling (p-SMAD-3 (Ser423/425))
Assay: AlphaScreen SureFire SMAD3 (p-Ser423/425) assay, GDF8-stimulated cells (GDF pSMAD)
Assay type: cell-based
Conditions: MPC11; GDF8-stimulated; p-SMAD3 AlphaScreen; read-out: GDF pSMAD (MPC11) (inhibition of GDF8 signaling)

| SMILES | IC50 [µM] |
| --- | --- |
| Cc1cc(-c2ncccc2-c2ccc3ncn(CCCN4CCN(C)CC4)c3c2)ccc1F [Compound 40, 6-(2-(4-Fluoro-3-methylphenyl)pyridin-3-yl)-1-(3-(4-methylpiperazin-1-yl)propyl)-1H-benzo[d]imidazole] | 18.5 |

Same assay, conditions: Mus musculus, MPC-11, GDF8-stimulated pSMAD3, MPC11; tested as the salt form given; read-out: GDF pSMAD (MPC11) (μM), inhibition of GDF8 signaling

| SMILES | IC50 [µM] |
| --- | --- |
| Nc1ncnc2ccc(-c3cccnc3-c3cc(OC(F)F)ccc3Cl)cc12 [compound 1017, 6-(2-(2-chloro-5-(difluoromethoxy)phenyl)pyridin-3-yl)quinazolin-4-amine] | 2.08 |
| Nc1ncnc2ccc(-c3cccnc3-c3cc(O)c(F)cc3F)cc12 [compound 1013, 5-(3-(4-aminoquinazolin-6-yl)pyridin-2-yl)-2,4-difluorophenol] | 1.05 |
| COc1cc(-c2ncccc2-c2ccc3ncnc(N)c3c2)c(C)cc1F [compound 1022, 6-(2-(4-fluoro-5-methoxy-2-methylphenyl)pyridin-3-yl)quinazolin-4-amine] | 13.7 |

Same assay, conditions: Mus musculus, MPC-11, MPC11; GDF8-stimulated; p-SMAD3 AlphaScreen; read-out: GDF pSMAD (MPC11) (inhibition of GDF8 signaling)

| SMILES | IC50 [µM] |
| --- | --- |
| Cc1cc(-c2ncc(NC(=O)NC(C)C)cc2-c2ccc3c(cnn3C(=O)NC(C)C)c2)ccc1F [compound 215, 5-(2-(4-Fluoro-3-methylphenyl)-5-(3-isopropylureido)pyridin-3-yl)-N-isopropyl-1H-indazole-1-carboxamide] | 15.7 |
| CC(=O)c1cnc2ccc(-c3cccnc3-c3cccc(C)c3)cn12 [compound 587, 1-(6-(2-(m-Tolyl)pyridin-3-yl)imidazo[1,2-a]pyridin-3-yl)ethan-1-one] | 0.366 |
| Cc1cc(-c2ncccc2-c2ccc3ncc(C(=O)NCCCO)n3c2)ccc1F [compound 704, 6-(2-(4-Fluoro-3-methylphenyl)pyridin-3-yl)-N-(3-hydroxypropyl)imidazo[1,2-a]pyridine-3-carboxamide] | 0.281 |
| Nc1noc2ccc(-c3cccnc3-c3cccc(Cl)c3)cc12 [compound 799, 5-(2-(3-Chlorophenyl)pyridin-3-yl)benzo[d]isoxazol-3-amine] | 14.6 |
| Cc1cc(-c2ncccc2-c2ccn3ncc(C(=O)O)c3c2)ccc1F [compound 678, 5-(2-(4-Fluoro-3-methylphenyl)pyridin-3-yl)pyrazolo[1,5-a]pyridine-3-carboxylic acid] | 2.47 |
| N#Cc1cnc2ccc(-c3cccnc3-c3ccc(F)c(C4CC4)c3)cn12 [compound 223, 6-(2-(3-Cyclopropyl-4-fluorophenyl)pyridin-3-yl)imidazo[1,2-a]pyridine-3-carbonitrile] | 0.707 |
| c1cnc(-c2ccc3[nH]ncc3c2)c(-c2ccc3[nH]ncc3c2)c1 [Compound 64, 5-(3-(1H-Indazol-5-yl)pyridin-2-yl)-1H-indazole] | 0.84 |
| Cc1ccc(-c2ncccc2-c2ccc3ncnc(N)c3c2)cc1F [compound 459, 6-(2-(3-Fluoro-4-methylphenyl)pyridin-3-yl)quinazolin-4-amine] | 11.5 |
| Cc1cc(-c2ncccc2-c2ccc3ncc(C(=O)NC4CCN(C(C)C)CC4)n3c2)ccc1F [compound 700, 6-(2-(4-Fluoro-3-methylphenyl)pyridin-3-yl)-N-(1-isopropylpiperidin-4-yl)imidazo[1,2-a]pyridine-3-carboxamide] | 0.138 |
| Fc1ccc(-c2ncccc2-c2ccc3ncsc3c2)c(F)c1 [compound 665, 6-(2-(2,4-Difluorophenyl)pyridin-3-yl)benzo[d]thiazole] | 2.36 |
| O=C(NCCCN1CCCC1=O)c1cnc2ccc(-c3cccnc3-c3cc(Cl)ccc3F)cn12 [compound 729, 6-(2-(5-Chloro-2-fluorophenyl)pyridin-3-yl)-N-(3-(2-oxopyrrolidin-1-yl)propyl)imidazo[1,2-a]pyridine-3-carboxamide] | 0.286 |
| Cc1cc(-c2ncc(NCc3ccncc3)cc2-c2ccc3ncsc3c2)ccc1F [compound 509, 5-(Benzo[d]thiazol-6-yl)-6-(4-fluoro-3-methylphenyl)-N-(pyridin-4-ylmethyl)pyridin-3-amine] | 0.265 |
| Cc1cn2cc(-c3cccnc3-c3cccc(C(F)(F)F)c3)ccc2n1 [compound 534] | 18 |
| [2H]C([2H])([2H])c1cccc(-c2ncccc2-c2ccn3nccc3n2)c1 [compound 602, 5-(2-(3-(Methyl-d3)phenyl)pyridin-3-yl)pyrazolo[1,5-a]pyrimidine] | 0.0681 |
| Cc1cc(-c2ncccc2-c2ccc3c(N)noc3c2)ccc1F [compound 794, 6-(2-(4-Fluoro-3-methylphenyl)pyridin-3-yl)benzo[d]isoxazol-3-amine] | 1.8 |
| Cc1cc(-c2ncccc2-c2ccc3nccn3c2)ccc1F [Compound 165, 6-(2-(4-Fluoro-3-methylphenyl)pyridin-3-yl)imidazo[1,2-a]pyridine] | 0.265 |
| CN1CCC(NC(=O)c2cnc3ccc(-c4cccnc4-c4cccc(Cl)c4)cn23)CC1 [compound 708, 6-(2-(3-Chlorophenyl)pyridin-3-yl)-N-(1-methylpiperidin-4-yl)imidazo[1,2-a]pyridine-3-carboxamide] | 0.266 |
| Cc1cc(-c2ncccc2-c2ccc3ncnc(Oc4cccnc4)c3c2)ccc1F [compound 442, 6-(2-(4-Fluoro-3-methylphenyl)pyridin-3-yl)-4-(pyridin-3-yloxy)quinazoline] | 0.366 |
| Nc1n[nH]c2cc(-c3cccnc3-c3ccc(F)c(Cl)c3)ccc12 [compound 800, 6-(2-(3-Chloro-4-fluorophenyl)pyridin-3-yl)-1H-indazol-3-amine] | 0.879 |
| Cc1c(-c2cccnc2-c2cccc(Cl)c2)ccc2ncnn12 [compound 811, 6-(2-(3-Chlorophenyl)pyridin-3-yl)-5-methyl-[1,2,4]triazolo[1,5-a]pyridine] | 2.92 |

| SMILES | IC50 [µM] |
| --- | --- |
| N#Cc1cnc2ccc(-c3cccnc3-c3cc(Cl)c(F)cc3F)cn12 [compound 720, 6-(2-(5-Chloro-2,4-difluorophenyl)pyridin-3-yl)imidazo[1,2-a]pyridine-3-carbonitrile] | 0.822 |
| Cc1cc(-c2ncccc2-c2ccnc(Nc3ccc(S(N)(=O)=O)cc3)n2)ccc1F [compound 906, 4-((4-(2-(4-Fluoro-3-methylphenyl)pyridin-3-yl)pyrimidin-2-yl)amino)benzenesulfonamide] | 3.34 |
| FC(F)(F)Oc1cccc(-c2ncccc2-c2ccn3ncnc3c2)c1 [compound 882, 7-(2-(3-(Trifluoromethoxy)phenyl)pyridin-3-yl)-[1,2,4]triazolo[1,5-a]pyridine] | 1.12 |
| Nc1ncnc2ccc(-c3cccnc3-c3cc(Cl)ccc3F)cc12 [compound 449, 6-(2-(5-Chloro-2-fluorophenyl)pyridin-3-yl)quinazolin-4-amine] | 0.0686 |
| Cc1cccc(-c2ncccc2-c2ccc3c(c2)OCO3)c1 [Compound 109, 3-(Benzo[d][1,3]dioxol-6-yl)-2-m-tolylpyridine] | 17.2 |
| Fc1cc(F)c(-c2ncccc2-c2ccc3nccnc3n2)cc1Cl [compound 743, 6-(2-(5-Chloro-2,4-difluorophenyl)pyridin-3-yl)pyrido[2,3-b]pyrazine] | 0.638 |
| COc1ncnc2ccc(-c3cccnc3-c3cccc(C)c3)cc12 [compound 376, 4-Methoxy-6-(2-(m-tolyl)pyridin-3-yl)quinazoline] | 0.276 |
| Fc1ccc(-c2ncccc2-c2ccc3[nH]ncc3c2)cc1C(F)(F)F [Compound 93, 5-(2-(4-Fluoro-3-(trifluoromethyl)phenyl)pyridin-3-yl)-1H-indazole] | 4.83 |
| Cc1cc(-c2nc3c(cc2-c2ccc4ncccc4c2)NC(=O)CO3)ccc1F [compound 293, 6-(4-Fluoro-3-methylphenyl)-7-(quinolin-6-yl)-1H-pyrido[2,3-b] [1,4]oxazin-2(3H)-one] | 5.54 |
| OCc1cccc(-c2ncccc2-c2ccc3[nH]ncc3c2)c1 [Compound 91, [3-(3-(1H-Indazol-5-yl)pyridin-2-yl)phenyl]methanol] | 3.03 |
| Cc1ccc(-c2ccc3[nH]ncc3c2)c(-c2ccc(F)c(C)c2)n1 [Compound 12, 5-(2-(4-Fluoro-3-methylphenyl)-6-methylpyridin-3-yl)-1H-indazole] | 18.9 |
| COc1cc(-c2ncccc2-c2cnc3cn[nH]c3c2)ccc1F [Compound 143, 6-(2-(4-Fluoro-3-methoxyphenyl)pyridin-3-yl)-1H-pyrazolo[4,3-b]pyridine] | 12.2 |
| Cc1cc(Cl)cc(-c2ncccc2-c2ccc3ncnn3c2)c1 [compound 775, 6-(2-(3-Chloro-5-methylphenyl)pyridin-3-yl)-[1,2,4]triazolo[1,5-a]pyridine] | 3.96 |
| Cc1cc(-c2ncc(COCC(=O)N(C)C)cc2-c2ccc3nccnc3c2)ccc1F [compound 231, 2-((6-(4-Fluoro-3-methylphenyl)-5-(quinoxalin-6-yl)pyridin-3-yl)methoxy)-N,N-dimethylacetamide] | 10.8 |
| Cc1cccc(-c2ncccc2-c2ccc3[nH]ncc3c2)n1 [compound 116, 5-(2-(6-Methylpyridin-2-yl)pyridin-3-yl)-1H-indazole] | 0.0326 |
| O=c1nc[nH]c2ccc(-c3cccnc3-c3ccc(F)c(Cl)c3)cc12 [compound 388, 6-(2-(3-Chloro-4-fluorophenyl)pyridin-3-yl)quinazolin-4(1H)-one] | 0.547 |
| Cc1cccc(-c2ncccc2-c2ccc3nc[nH]c3c2)c1 [Compound 178, 6-(2-m-Tolylpyridin-3-yl)-1H-benzo[d]imidazole] | 0.187 |
| Cc1cc(-c2ncc(NC3CCN(C)CC3)cc2-c2ccc3nccnc3c2)ccc1F [compound 240, 6-(4-Fluoro-3-methylphenyl)-N-(1-methylpiperidin-4-yl)-5-(quinoxalin-6-yl)pyridin-3-amine] | 7.45 |
| FC(F)Oc1cccc(-c2ncccc2-c2ccc3ncsc3c2)c1 [compound 961, 6-(2-(3-(Difluoromethoxy)phenyl)pyridin-3-yl)benzo[d]thiazole] | 0.129 |
| Cc1cc(-c2nc(N)ccc2-c2ccc3ncsc3c2)ccc1F [Compound 27, 5-(Benzo[d]thiazol-6-yl)-6-(4-fluoro-3-methylphenyl)pyridin-2-amine] | 0.453 |
